How the values were obtained:
[1] = system: A375 (Melanoma); assay: Bliss excess, mean over the matrix (fraction); higher = more synergy
Summary of the method: (§1)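 Cell lines in DMEM/F12 or RPMI with 10% FBS were plated in 1536-well plates, held 24 hours at 37°C, 5% CO2, then given two-drug dose matrices for 72 hours (DMSO typically 0.2%). Viability was read by CellTiter-Glo 2.0 luminescence and scaled as inhibition from 0 (vehicle wells) to 1 (blank wells). Combination Emax is the second-highest inhibition in the matrix; Bliss excess is observed combination effect minus expected EA + EB − EA·EB, EA and EB being single-agent effects.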

[2] = system: BC-1 (B-Cell Non-Hodgkin's Lymphoma); assay: as above
Summary of the method: as §1

[3] = system: C32 (Melanoma); assay: as above
Summary of the method: as §1

[4] = system: CAL-85-1 (Breast Carcinoma); assay: as above
Summary of the method: as §1

[5] = system: COR-L105 (Lung Adenocarcinoma); assay: as above
Summary of the method: as §1

[6] = system: GCIY (Gastric Carcinoma); assay: as above
Summary of the method: as §1

[7] = system: KNS-62 (Squamous Cell Lung Carcinoma); assay: as above
Summary of the method: as §1

[8] = system: L-363 (Plasma Cell Myeloma); assay: as above
Summary of the method: as §1

[9] = system: MDA-MB-175-VII (Breast Carcinoma); assay: as above
Summary of the method: as §1

[10] = system: MG-63 (Osteosarcoma); assay: as above
Summary of the method: as §1

[11] = system: MRK-nu-1 (Breast Carcinoma); assay: as above
Summary of the method: as §1

[12] = system: NCI-H1435 (Non-Small Cell Lung Carcinoma); assay: as above
Summary of the method: as §1

[13] = system: NCI-H1648 (Lung Adenocarcinoma); assay: as above
Summary of the method: as §1

[14] = system: NCI-H2009 (Lung Adenocarcinoma); assay: as above
Summary of the method: as §1

[15] = system: NCI-H2023 (Non-Small Cell Lung Carcinoma); assay: as above
Summary of the method: as §1

[16] = system: NCI-H2452 (Mesothelioma); assay: as above
Summary of the method: as §1

[17] = system: NCI-H835 (Other Solid Carcinomas); assay: as above
Summary of the method: as §1

[18] = system: NTERA-2-cl-D1 (Other Solid Carcinomas); assay: as above
Summary of the method: as §1

[19] = system: OVKATE (Ovarian Carcinoma); assay: as above
Summary of the method: as §1

[20] = system: RPMI-8402 (T-Lymphoblastic Leukemia); assay: as above
Summary of the method: as §1

[21] = system: SBC-3 (Small Cell Lung Carcinoma); assay: as above
Summary of the method: as §1

[22] = system: SK-MEL-24 (Melanoma); assay: as above
Summary of the method: as §1

[23] = system: SW1463 (Colorectal Carcinoma); assay: as above
Summary of the method: as §1

[24] = system: A375 (Melanoma); assay: combination Emax (second highest fraction inhibited in the dose matrix, 72 h); higher = more inhibition; extreme values may be limits of the assay
Summary of the method: as §1

[25] = system: BC-1 (B-Cell Non-Hodgkin's Lymphoma); assay: as above
Summary of the method: as §1

[26] = system: C32 (Melanoma); assay: as above
Summary of the method: as §1

[27] = system: CAL-85-1 (Breast Carcinoma); assay: as above
Summary of the method: as §1

[28] = system: COR-L105 (Lung Adenocarcinoma); assay: as above
Summary of the method: as §1

[29] = system: GCIY (Gastric Carcinoma); assay: as above
Summary of the method: as §1

[30] = system: KNS-62 (Squamous Cell Lung Carcinoma); assay: as above
Summary of the method: as §1

[31] = system: L-363 (Plasma Cell Myeloma); assay: as above
Summary of the method: as §1

[32] = system: MDA-MB-175-VII (Breast Carcinoma); assay: as above
Summary of the method: as §1

[33] = system: MG-63 (Osteosarcoma); assay: as above
Summary of the method: as §1

[34] = system: MRK-nu-1 (Breast Carcinoma); assay: as above
Summary of the method: as §1

[35] = system: NCI-H1435 (Non-Small Cell Lung Carcinoma); assay: as above
Summary of the method: as §1

[36] = system: NCI-H1648 (Lung Adenocarcinoma); assay: as above
Summary of the method: as §1

[37] = system: NCI-H2009 (Lung Adenocarcinoma); assay: as above
Summary of the method: as §1

[38] = system: NCI-H2023 (Non-Small Cell Lung Carcinoma); assay: as above
Summary of the method: as §1

[39] = system: NCI-H2452 (Mesothelioma); assay: as above
Summary of the method: as §1

[40] = system: NCI-H835 (Other Solid Carcinomas); assay: as above
Summary of the method: as §1

[41] = system: NTERA-2-cl-D1 (Other Solid Carcinomas); assay: as above
Summary of the method: as §1

[42] = system: OVKATE (Ovarian Carcinoma); assay: as above
Summary of the method: as §1

[43] = system: RPMI-8402 (T-Lymphoblastic Leukemia); assay: as above
Summary of the method: as §1

[44] = system: SBC-3 (Small Cell Lung Carcinoma); assay: as above
Summary of the method: as §1

[45] = system: SK-MEL-24 (Melanoma); assay: as above
Summary of the method: as §1

[46] = system: SW1463 (Colorectal Carcinoma); assay: as above
Summary of the method: as §1
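Throughout, for Bliss excess, mean over the matrix: after 72 h of two-drug dosing.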

Compound `C[C@@H]1COCCN1c1cc(C2([S@](C)(=N)=O)CC2)nc(-c2ccnc3[nH]ccc23)n1` [AZD6738] + C1CC(C1)(C(=O)[O-])C(=O)[O-].N.N.[Pt+2] [Carboplatin] (first compound max 10 µM, 7x7, partner max 10 µM) has a Bliss excess [1] of -0.0113, a Bliss excess [2] of -0.0173 and a Bliss excess [3] of -0.0133. It also gave a Bliss excess [4] of -0.0551, a Bliss excess [5] of -0.0272 and a Bliss excess [6] of -0.066. For the same compound, the Bliss excess [7] was -0.0581, the Bliss excess [8] was -0.0089 and the Bliss excess [9] was -0.0024. The Bliss excess [10] was -0.0391, the Bliss excess [11] was -0.0127 and the Bliss excess [12] was -0.0103. It also gave a Bliss excess [13] of -0.0579, a Bliss excess [14] of -0.0556 and a Bliss excess [15] of -0.0208. It also gave a Bliss excess [16] of -0.0212, a Bliss excess [17] of -0.0529 and a Bliss excess [18] of -0.0651. It also gave a Bliss excess [19] of -0.0642, a Bliss excess [20] of -0.0461 and a Bliss excess [21] of -0.031. The Bliss excess [22] was -0.0748, the Bliss excess [23] was -0.0446 and the “combination Emax” value [24] was 0.521. The “combination Emax” value [25] was 0.849, the “combination Emax” value [26] was 0.601 and the “combination Emax” value [27] was 0.382. For the same compound, the “combination Emax” value [28] was 0.323, the “combination Emax” value [29] was 0.643 and the “combination Emax” value [30] was 0.438. For the same compound, the “combination Emax” value [31] was 0.528, the “combination Emax” value [32] was 0.309 and the “combination Emax” value [33] was 0.524. For the same compound, the “combination Emax” value [34] was 0.6, the “combination Emax” value [35] was 0.136 and the “combination Emax” value [36] was 0.571. The “combination Emax” value [37] was 0.466, the “combination Emax” value [38] was 0.608 and the “combination Emax” value [39] was 0.432. For the same compound, the “combination Emax” value [40] was 0.322, the “combination Emax” value [41] was 0.524 and the “combination Emax” value [42] was 0.211. For the same compound, the “combination Emax” value [43] was 0.967, the “combination Emax” value [44] was 0.647 and the “combination Emax” value [45] was 0.36. The “combination Emax” value [46] was 0.409.
